Assay results reported in ChEMBL document CHEMBL1201862, “PubChem BioAssay data set” (2004).
The source made the active and inactive calls.

Key:
[1] = biological target: T1, Zinc finger protein mex-5 (Caenorhabditis elegans, UniProt Q9XUB2); experiment: potency of MEX-5 RNA-binding blockers – biochemical, C. elegans, fluorescence polarization, dose response (AID 1960)
T1 sequence (Q9XUB2 whole entry): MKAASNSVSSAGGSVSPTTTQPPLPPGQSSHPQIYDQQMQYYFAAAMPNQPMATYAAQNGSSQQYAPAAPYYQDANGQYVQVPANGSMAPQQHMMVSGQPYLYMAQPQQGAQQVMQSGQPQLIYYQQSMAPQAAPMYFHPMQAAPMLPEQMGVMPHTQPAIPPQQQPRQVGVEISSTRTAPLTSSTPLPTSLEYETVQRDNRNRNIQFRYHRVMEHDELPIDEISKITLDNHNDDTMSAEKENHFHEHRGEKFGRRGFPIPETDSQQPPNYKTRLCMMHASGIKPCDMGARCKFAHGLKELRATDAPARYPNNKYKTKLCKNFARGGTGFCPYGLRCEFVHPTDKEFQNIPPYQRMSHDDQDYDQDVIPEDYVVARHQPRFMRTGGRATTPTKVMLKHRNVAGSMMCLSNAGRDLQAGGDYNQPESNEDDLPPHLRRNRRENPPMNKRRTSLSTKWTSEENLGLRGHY

[2] = biological target: Protein Rev (Human immunodeficiency virus type 1 group M subtype B (isolate HXB2)(HIV-1), UniProt P04618); experiment: blockers of HIV Rev/RRE RNA complex – biochemical, fluorescence polarization, HIV-1, dose response (AID 434976); design: species or system Human immunodeficiency virus 1
Protein Rev, sequence (P04618 whole entry): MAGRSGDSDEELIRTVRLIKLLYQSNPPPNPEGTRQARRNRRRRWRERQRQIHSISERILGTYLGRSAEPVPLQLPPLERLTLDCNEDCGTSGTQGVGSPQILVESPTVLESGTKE

[3] = biological target: Female germline-specific tumor suppressor gld-1 (Caenorhabditis elegans, UniProt Q17339); experiment: blockers of GLD-1/TGE RNA complex formation – biochemical, fluorescence polarization, C. elegans, dose response (AID 2802);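 note: fluorescence polarization of labeled TGE RNA bound by purified gld-1 protein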
Female germline-specific tumor suppressor gld-1, sequence (Q17339 whole entry): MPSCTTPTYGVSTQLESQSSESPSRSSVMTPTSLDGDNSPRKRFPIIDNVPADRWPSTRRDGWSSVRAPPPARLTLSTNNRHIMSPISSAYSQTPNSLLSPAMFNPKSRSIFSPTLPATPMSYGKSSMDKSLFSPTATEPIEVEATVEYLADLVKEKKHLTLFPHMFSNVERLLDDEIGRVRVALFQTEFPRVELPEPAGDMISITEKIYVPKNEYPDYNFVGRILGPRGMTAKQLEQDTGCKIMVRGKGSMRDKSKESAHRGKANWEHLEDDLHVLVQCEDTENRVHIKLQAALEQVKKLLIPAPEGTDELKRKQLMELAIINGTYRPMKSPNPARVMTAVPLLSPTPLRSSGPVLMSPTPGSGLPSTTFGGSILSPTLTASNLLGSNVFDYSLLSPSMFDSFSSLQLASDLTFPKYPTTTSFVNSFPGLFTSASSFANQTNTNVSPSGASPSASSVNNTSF

[4] = biological target: Induced myeloid leukemia cell differentiation protein Mcl-1 (Homo sapiens, UniProt Q07820); format: functional
Induced myeloid leukemia cell differentiation protein Mcl-1, sequence (Q07820 whole entry, the tested form may be a part): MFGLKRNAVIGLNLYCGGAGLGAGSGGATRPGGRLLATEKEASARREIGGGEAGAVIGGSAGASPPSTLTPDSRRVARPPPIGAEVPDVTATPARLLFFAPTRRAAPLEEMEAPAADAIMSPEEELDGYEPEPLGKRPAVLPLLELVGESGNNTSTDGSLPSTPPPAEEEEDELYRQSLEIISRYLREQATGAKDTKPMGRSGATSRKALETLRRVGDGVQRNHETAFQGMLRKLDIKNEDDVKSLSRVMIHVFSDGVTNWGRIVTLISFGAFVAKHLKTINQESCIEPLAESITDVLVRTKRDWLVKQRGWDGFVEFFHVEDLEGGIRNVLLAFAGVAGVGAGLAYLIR

[5] = biological target: T2, RNA-binding protein pos-1 (Caenorhabditis elegans, UniProt G5EF15); experiment: disruptors of C. elegans POS-1 RNA interaction – biochemical, fluorescence polarization, dose response (AID 1964);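 note: purified POS-1 fused to maltose binding protein made in E. coli; potency of compounds blocking POS-1 binding to fluorescent RNA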
T2 sequence (G5EF15 whole entry): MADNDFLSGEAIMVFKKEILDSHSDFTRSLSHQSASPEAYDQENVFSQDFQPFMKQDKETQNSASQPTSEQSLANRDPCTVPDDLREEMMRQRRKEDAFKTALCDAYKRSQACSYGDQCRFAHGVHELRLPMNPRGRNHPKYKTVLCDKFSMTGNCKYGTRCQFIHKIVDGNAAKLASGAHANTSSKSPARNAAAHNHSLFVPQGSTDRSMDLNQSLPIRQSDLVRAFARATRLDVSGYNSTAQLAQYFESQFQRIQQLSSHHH

Nc1c(O)ccc2c1C(=O)c1ccccc1C2=O
EC50 [1]: 10.4 µM (active) | IC50 [2]: > 75.4 µM (not active) | IC50 [3]: 4.15 µM (active) | IC50 [4]: 3.66 µM (not active) | EC50 [5]: > 300 µM (not active)
